Measured values: the Deep4Chem optical property database

Test: solvent given as SMILES

## [C-]#[N+]c1ccc(-c2ccc(N)cc2)cc1
In C1CCCCC1
  emission maximum: 354 nm
In C1CCOC1
  emission maximum: 396 nm
In C1COCCO1
  emission maximum: 383 nm
In CC#N
  emission maximum: 410 nm
In CC(C)=O
  emission maximum: 407 nm
In CCCCCC
  emission maximum: 353 nm
In CCOC(C)=O
  emission maximum: 397 nm
In CN(C)C=O
  emission maximum: 423 nm
In CO
  emission maximum: 419 nm
In CS(C)=O
  emission maximum: 424 nm
In Cc1ccccc1
  emission maximum: 371 nm
In ClC(Cl)Cl
  emission maximum: 398 nm
In ClCCl
  emission maximum: 390 nm
In O
  emission maximum: 457 nm
In c1ccncc1
  emission maximum: 415 nm

## Cc1cccc(C)c1/C=C/c1nc(N2CCOCC2)c2c([n+]1[O-])CCCC2
In ClCCl
  emission maximum: 536 nm

## CC1=CC(Br)=CN2C[n+]3cc(Br)cc(C)c3N=C12
In CO
  emission maximum: 502 nm

## C#Cc1ccc2ccc3cccc4ccc1c2c34
In C1CCCCC1
  emission maximum: 383 nm
In CC#N
  emission maximum: 384 nm
In CO
  emission maximum: 383 nm
In ClCCl
  emission maximum: 384 nm

## c1ccc2c(c1)c1ccccc1n2-c1ccc2c(c1)c1ccccc1n2-c1cc2c3ccccc3n3c4ccccc4c(c1)c23
In C1CCCCC1
  emission maximum: 391.83 nm
In C1CCOC1
  emission maximum: 402.09 nm
In Cc1ccccc1
  emission maximum: 400 nm

## CCCCCCCC(=O)Oc1ccc2c3cccc4c(OC(=O)CCCCCCC)ccc(c5cccc1c52)c43
In C1CCOC1
  emission maximum: 454.01 nm
In Cc1ccccc1
  emission maximum: 456.99 nm
In ClC(Cl)(Cl)Cl
  emission maximum: 456.99 nm
In ClC(Cl)Cl
  emission maximum: 456.01 nm
In ClCCl
  emission maximum: 455 nm
In c1ccncc1
  emission maximum: 459.02 nm

## N#CC(C#N)=Cc1nc2ccc(C#Cc3ccc(N(c4ccccc4)c4ccccc4)cc3)cc2s1
In Cc1ccccc1
  emission maximum: 617 nm

## O=S1(=O)c2ccccc2C2(c3cc(-c4ccc(N(c5ccccc5)c5ccccc5)cc4)ccc3-c3ccc(-c4ccc(N(c5ccccc5)c5ccccc5)cc4)cc32)c2ccccc21
In ClCCl
  emission maximum: 460 nm
In c1cc(-n2c3ccccc3c3ccccc32)cc(-n2c3ccccc3c3ccccc32)c1
  emission maximum: 448 nm

## CCCCCCCC[n+]1ccc(-c2cc[n+](CCCCCCCC)cc2)cc1
In CC#N
  emission maximum: 353 nm

## CC(C)(C)NC(=O)c1cc2ccccc2c2ccc3c4ccccc4c4ccccc4c3c12
In ClCCl
  emission maximum: 419 nm

## N#CC(/N=C/c1ccccc1O)=C(C#N)/N=C/c1ccccc1O
In CC#N
  emission maximum: 553 nm

## CC1(C)C(/C=C/C2=C(Cl)C(=C/C=C3/N(Cc4ccccc4)c4ccccc4C3(C)C)/CCC2)=[N+](Cc2ccccc2)c2ccccc21
In CO
  emission maximum: 813 nm

## c1ccc(N(c2ccccc2)c2ccc(-c3cccc4nc5ccccc5cc34)cc2)cc1
In C1CCOC1
  emission maximum: 535 nm
In CC#N
  emission maximum: 572 nm
In CC(C)OC(C)C
  emission maximum: 496 nm
In CCCCCC
  emission maximum: 462 nm
In CCCCOCCCC
  emission maximum: 491 nm
In CCN(CC)CC
  emission maximum: 479 nm
In CCOC(C)=O
  emission maximum: 532 nm
In CCOCC
  emission maximum: 507 nm
In CN(C)C=O
  emission maximum: 566 nm
In ClCCl
  emission maximum: 555 nm

## O=C1CC(=O)Nc2cc(C(=O)O)ccc2N1
In CS(C)=O
  emission maximum: 407 nm

## CN(C)c1ccc2c(-c3ccc(N)cc3C(=O)[O-])c3ccc(=[N+](C)C)cc-3oc2c1
In CCO
  emission maximum: 564 nm
In O
  emission maximum: 572 nm

## CCCCCCCCc1ccc(-c2ccc(/C=C(\C#N)c3ccc(-c4cccc5cccc(-c6ccc(/C(C#N)=C/c7ccc(-c8ccc(CCCCCCCC)cc8)cc7)cc6)c45)cc3)cc2)cc1
In Cc1ccccc1
  emission maximum: 491 nm

## Cc1cc(C)c(B(c2ccc(-c3ccc4ccc5cccc6ccc3c4c56)cc2)c2c(C)cc(C)cc2C)c(C)c1
In Cc1ccccc1
  emission maximum: 431 nm

## CC(C)(C)c1ccc2c(c1)c1cc(C(C)(C)C)ccc1n2-c1ccc(N(c2ccc(-c3ccc(-c4ccc(-c5ccc(-c6ccc(N(c7ccc(-n8c9ccc(C(C)(C)C)cc9c9cc(C(C)(C)C)ccc98)cc7)c7ccc(-n8c9ccc(C(C)(C)C)cc9c9cc(C(C)(C)C)ccc98)cc7)cc6)cc5)c5nsnc45)cc3)cc2)c2ccc(-n3c4ccc(C(C)(C)C)cc4c4cc(C(C)(C)C)ccc43)cc2)cc1
In ClCCl
  emission maximum: 513 nm

## O=C1Nc2ccccc2/C1=C/C(=O)c1ccccc1
In C1CCCCC1
  emission maximum: 374 nm
In C1COCCO1
  emission maximum: 396 nm
In CC#N
  emission maximum: 398 nm
In CC(C)(C)O
  emission maximum: 407 nm
In CC(C)O
  emission maximum: 412 nm
In CCCCCC
  emission maximum: 374 nm
In CCCCO
  emission maximum: 411 nm
In CCOC(C)=O
  emission maximum: 394 nm
In CN(C)C=O
  emission maximum: 404 nm
In CO
  emission maximum: 412 nm
In ClCCl
  emission maximum: 398 nm
In O
  emission maximum: 424 nm

## CCC1=C(C)C2=Cc3c(I)c(I)c(I)n3[B-](F)(F)[N+]2=C1C
In C1CCCCC1
  emission maximum: 551.5 nm
In CC(C)=O
  emission maximum: 553 nm
In CCO
  emission maximum: 557 nm
In CCOC(C)=O
  emission maximum: 553.5 nm
In CO
  emission maximum: 554 nm
In OCC(F)(F)F
  emission maximum: 550.5 nm

## COc1ccc(-c2cc3ccc4cc(-c5ccc(OC)cc5)cc5ccc(c2)c3c45)cc1
In C1CCCCC1
  emission maximum: 418.86 nm
In C1CCOC1
  emission maximum: 416.47 nm
In CC#N
  emission maximum: 414.88 nm
In CCCCCC
  emission maximum: 417.26 nm
In CCO
  emission maximum: 416.27 nm
In CN(C)C=O
  emission maximum: 417.86 nm
In CO
  emission maximum: 418.06 nm
In ClC(Cl)Cl
  emission maximum: 417.61 nm
In ClCCl
  emission maximum: 417.26 nm

## COc1ccc(-c2nc3ccccc3nc2-c2ccc(OC)cc2)cc1
In C1CCOC1
  emission maximum: 432 nm
In CC#N
  emission maximum: 435 nm
In CCCCCC
  emission maximum: 423 nm
In CN(C)C=O
  emission maximum: 432 nm
In Cc1ccccc1
  emission maximum: 426 nm
In ClC(Cl)Cl
  emission maximum: 430 nm

## CCCCCCc1ccc2c3c(ccc2c1)O[B-](c1ccccc1)(c1ccccc1)[N+](c1ccc([N+]2=Cc4c(ccc5cc(CCCCCC)ccc45)O[B-]2(c2ccccc2)c2ccccc2)cc1)=C3
In C1CCOC1
  emission maximum: 568 nm
In CC#N
  emission maximum: 561 nm
In Cc1ccccc1
  emission maximum: 569 nm
In ClCCl
  emission maximum: 568 nm

## c1ccc(-n2c3ccccc3c3cc(-c4cccc(-n5c6cccnc6c6c7sc8ccccc8c7ccc65)c4)ccc32)cc1
In ClCCl
  emission maximum: 384 nm

## COC(=O)c1cc2c(cc3ccc4cccc5ccc2c3c45)[nH]1
In C1CCOC1
  emission maximum: 404 nm

## O=c1[nH]c(=O)n([C@@H]2O[C@H](CO)[C@@H](O)[C@H]2O)c2ccsc12
In CC#N
  emission maximum: 344 nm
In CCOC(C)=O
  emission maximum: 345 nm
In CO
  emission maximum: 350 nm
In O
  emission maximum: 351 nm

## CCCn1c(-c2cc(-c3nc4ccccc4n3CCC)cc(-c3nc4ccccc4n3CCC)c2)nc2ccccc21
In CS(C)=O
  emission maximum: 381 nm

## c1ccc(N(c2ccccc2)c2ccc(-c3ncc(-c4ccc(-c5ccc(-c6cnc(-c7ccc(N(c8ccccc8)c8ccccc8)cc7)s6)s5)s4)s3)cc2)cc1
In CO
  emission maximum: 509 nm

## COc1c2ccccc2c(OC)c2c1c1cc(Cl)ccc1n2C
In C1CCCCC1
  emission maximum: 421 nm
In CC#N
  emission maximum: 432 nm
In CO
  emission maximum: 428 nm
In ClCCl
  emission maximum: 431 nm

## CNc1cc2nc3cc(Br)c(Br)cc3nc2cc1NC
In CCO
  emission maximum: 542 nm

## CCC1=C(C)C2=Cc3c4ccccc4c4n3[B-](C)(Oc3ccccc3-4)[N+]2=C1C (configuration not stated)
In CC#N
  emission maximum: 630 nm
In CCCCCC
  emission maximum: 632 nm
In Cc1ccccc1
  emission maximum: 636 nm
In ClCCl
  emission maximum: 635 nm

## CCN(CC)c1ccc2cc(-c3ccc(-c4ccc(-c5cc6ccccc6oc5=O)cc4)cc3)c(=O)oc2c1
In ClCCl
  emission maximum: 478 nm

## O=c1c2cc(F)c(O)cc2oc2cc(O)c(F)cc12
In CCO
  emission maximum: 439 nm

## c1ccc(-c2nc(-c3ccccc3)nc(-c3ccccc3-n3c4ccccc4c4c5oc6ccccc6c5ccc43)n2)cc1
In C1CCCCC1
  emission maximum: 438.08 nm
In C1CCOC1
  emission maximum: 492.26 nm
In Cc1ccccc1
  emission maximum: 474.61 nm
In O=P(c1ccccc1)(c1ccccc1)c1ccccc1Oc1ccccc1P(=O)(c1ccccc1)c1ccccc1
  emission maximum: 456.95 nm

## N#Cc1c(N2CCCCC2)cc(-c2ccccc2)c2c1Cc1ccccc1-2
In C1CCOC1
  emission maximum: 449 nm

## c1ccc(N(c2ccccc2)c2ccc(-n3ccc4cc(-c5cccc6c5-c5ccccc5C6(c5ccccc5)c5ccccc5)ccc43)cc2)cc1
In ClCCl
  emission maximum: 381 nm

## Cc1ccc(-c2nc(-c3ccccc3O)[nH]c2-c2ccc(C)cc2)cc1
In CO
  emission maximum: 430 nm

## CCOC(=O)C1=C(C(=O)OCC)C2(c3ccccc3-c3ccccc32)[C@@H](c2ccc([N+](=O)[O-])cc2)C=C2c3cc(OC)c(OC)cc3CCN21
In ClCCl
  emission maximum: 430 nm

## COc1ccc(C2=[N+]3C(=Nc4c(-c5cc(OC)c(OC)c(OC)c5Br)c(-c5ccc(C(C)(C)C)cc5)c(-c5ccc(OC)cc5)n4[B-]3(F)F)C(c3cc(OC)c(OC)c(OC)c3Br)=C2c2ccc(C(C)(C)C)cc2)cc1
In Cc1ccccc1
  emission maximum: 740 nm

## Cc1cc2ccccc2c2c1c1ccccc1n2-c1ccc(N(c2ccccc2)c2ccccc2)cc1
In CCOC(C)=O
  emission maximum: 386 nm
In CS(C)=O
  emission maximum: 428 nm
In ClCCl
  emission maximum: 404 nm

## COc1ccc(/N=N/c2c(O)c3ccccc3n(C)c2=O)c(S(=O)(=O)O)c1
In C1CCOC1
  emission maximum: 527 nm
In CC(C)=O
  emission maximum: 528 nm
In CCOC(C)=O
  emission maximum: 525 nm
In CO
  emission maximum: 532 nm
In CS(C)=O
  emission maximum: 548 nm
In Cc1ccccc1
  emission maximum: 519 nm
In ClCCl
  emission maximum: 542 nm
In O
  emission maximum: 583 nm

## CCCCCCCCc1ccc(-c2c3cc(-c4cc(CCCCCCCC)c(-c5ccc(-c6sc(/C=C7\SC(N8CCCCC8)=NC7=O)cc6CCCCCCCC)s5)s4)sc3c(-c3ccc(CCCCCCCC)s3)c3cc(-c4cc(CCCCCCCC)c(-c5ccc(-c6sc(/C=C7\SC(N8CCCCC8)=NC7=O)cc6CCCCCCCC)s5)s4)sc23)s1
In ClC(Cl)Cl
  emission maximum: 576 nm

## O=C([O-])c1ccc(C(=O)[O-])c2cc3ccccc3cc12
In CN(C)C=O
  emission maximum: 430 nm

## Cc1cc(O)c(C(=O)/C=C/c2ccc(N(C)C)cc2)c(=O)o1
In CC#N
  emission maximum: 561 nm
In ClCCl
  emission maximum: 573 nm

## CN(C)c1ccc(-c2cc(-c3ccc(C#N)cc3)nc(-c3ccccc3)n2)cc1
In ClC(Cl)Cl
  emission maximum: 495 nm

## CCCCCCN1C(=O)c2cccc3c(-c4ccc(-c5ccc6c7c(cccc57)C(=O)N(CCCCCC)C6=O)s4)ccc(c23)C1=O
In ClC(Cl)Cl
  emission maximum: 495 nm

## CCCCCCCCCCN1C(=O)c2cc(NCCCOCCO)c3c4c(cc(NCCCOCCO)c(c24)C1=O)C(=O)N(CCCCCCCCCC)C3=O
In CO
  emission maximum: 642 nm
In ClC(Cl)Cl
  emission maximum: 640 nm
